Reference: US10597388B2, “Pyridazinone herbicides” (FMC CORPORATION, priority 2014, dated 2020)
Like-named read-outs stand apart in the source and are kept apart here.

Columns and labels:
Type in all cases: in vivo
[1] = tested on: barnyardgrass (Echinochloa crus-galli); experiment: Test A greenhouse herbicide test, pre- and postemergence; conditions: for pest or weed control at 125 g/ha / pest or weed control at 500 g/ha: Echinochloa crus-galli, 240 h
Outline: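 Seeds sown in loam–sand blend got a preemergence directed soil spray of compound in non-phytotoxic solvent with surfactant. Postemergence treatment was given at 2–10 cm, one- to two-leaf stage. After ~10 d in greenhouse, injury was rated visually vs untreated controls, 0 (no effect) to 100 (complete control).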

[2] = tested on: waterhemp_RES1 (ALS & Triazine resistant common waterhemp, Amaranthus rudis); experiment: Test E greenhouse herbicide test, postemergence
Description: At the same time, plants from these crop and weed species and also waterhemp_RES1, (ALS & Triazine resistant common waterhemp, Amaranthus rudis), and waterhemp_RES2, (ALS & HPPD resistant common waterhemp, Amaranthus rudis) were planted in pots containing Redi-Earth® planting medium (Scotts Company, 14111 Scottslawn Road, Marysville, Ohio 43041) comprising spaghnum peat moss, vermiculite, wetting agent and starter nutrients were treated with postemergence applications of test chemicals formulated in the same manner. Plants ranged in height from 2 to 18 cm for postemergence treatments (1- to 4-leaf stage). Treated plants and controls were maintained in a greenhouse for 14 to 21 d, after which time all species were compared to controls and visually evaluated. Plant response ratings, summarized in Table E, are based on a scale of 0 to 100 where 0 is no effect and 100 is complete control. A dash (-) response means no test result.

[3] = tested on: barnyardgrass (Echinochloa crus-galli); experiment: Test B flooded paddy test; conditions: 250 g ai/ha, Flood, visual rating on scale of 0 to 100 where 0 is no effect and 100 is complete control, 13 to 15 d after treatment
Outline: (§1)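 Plants at the 2-leaf stage were flooded to 3 cm above soil, and test compounds were applied directly into the paddy water, which was held at that depth throughout. After 13 to 15 d in a greenhouse, injury was rated visually against untreated controls on a 0–100 scale (0 no effect, 100 complete control).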

[4] = tested on: ducksalad (Heteranthera limosa); experiment: Test B flooded paddy test; conditions: 250 g ai/ha, Flood, visual rating on scale of 0 to 100 where 0 is no effect and 100 is complete control, 13 to 15 d after treatment
Outline: as §1

rice (Oryza sativa) = experiment: Test B flooded paddy test; conditions: 250 g ai/ha, Flood, visual rating on scale of 0 to 100 where 0 is no effect and 100 is complete control, 13 to 15 d after treatment
Outline: as §1

[5] = tested on: sedge, umbrella (small-flower umbrella sedge, Cyperus difformis); experiment: Test B flooded paddy test; conditions: 250 g ai/ha, Flood, visual rating on scale of 0 to 100 where 0 is no effect and 100 is complete control, 13 to 15 d after treatment
Outline: as §1

[6] = tested on: blackgrass (Alopecurus myosuroides); experiment: Test A greenhouse herbicide test, postemergence; conditions: for Plant response rating, Blackgrass: 125 g ai/ha, 0 to 100 scale where 0 is no effect and 100 is complete control; for Blackgrass plant response rating: 500 g ai/ha, 0 to 100 scale, 0 is no effect, 100 is complete control
Outline: (§2)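 Greenhouse postemergence test: formulated chemicals sprayed on one- to two-leaf plants (2 to 10 cm), grown in loam soil blended with sand. Injury assessed visually about 10 d later against untreated controls, scored 0 (no effect) to 100 (complete control).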

[7] = tested on: galium (catchweed bedstraw, Galium aparine); experiment: Test A greenhouse herbicide test, postemergence; conditions: for Plant response rating, Galium: 125 g ai/ha, 0 to 100 scale where 0 is no effect and 100 is complete control; for Galium plant response rating: 500 g ai/ha, 0 to 100 scale, 0 is no effect, 100 is complete control
Outline: as §2

[8] = tested on: chickweed (common chickweed, Stellaria media); experiment: Test C greenhouse herbicide test, postemergence
Outline: (§3)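 Ratings are visual scores from 0 (no effect) to 100 (complete control), made against controls 13–15 d after treatment. Postemergence sprays were applied in the greenhouse to plants 2–18 cm tall (1- to 4-leaf stage) in peat-moss/vermiculite potting medium.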

[9] = tested on: oat, wild (wild oat, Avena fatua); experiment: Test C greenhouse herbicide test, postemergence
Outline: as §3

kochia (Kochia scoparia) = experiment: Test C greenhouse herbicide test, postemergence
Outline: as §3

[10] = Postemergence, 125 g ai/ha, 0 to 100 scale where 0 is no effect and 100 is complete control
[11] = Postemergence, 500 g ai/ha, 0 to 100 scale, 0 is no effect, 100 is complete control
[12] = Preemergence, 125 g ai/ha, 0 to 100 scale where 0 is no effect and 100 is complete control
[13] = Preemergence, 500 g ai/ha, 0 to 100 scale, 0 no effect, 100 complete control
[14] = 31 g ai/ha, visual, scale 0 no effect to 100 complete control
[15] = 62 g ai/ha, scale 0 to 100 (0 no effect, 100 complete control)
[16] = 125 g ai/ha, scale 0 to 100 (0 no effect, 100 complete control)
[17] = 250 g ai/ha, scale 0 to 100 (0 no effect, 100 complete control)
[18] = Postemergence, 31 g ai/ha, 0 to 100 scale (0 no effect, 100 complete control)
[19] = Postemergence, 125 g ai/ha, scale 0 to 100, 0 is no effect, 100 is complete control
[20] = Postemergence, 250 g ai/ha, scale 0 to 100, 0 no effect, 100 complete control, 13 to 15 d
[21] = postemergence, 62 g ai/ha, scale 0 to 100, 0 no effect, 100 complete control
[22] = 16 g ai/ha, visual, scale 0 no effect to 100 complete control

Compound	Plant response rating, Barnyardgrass [1, 10]	Barnyardgrass plant response rating [1, 11]	Barnyardgrass plant response rating [1, 12]	Plant response rating, Barnyardgrass [1, 13]	Plant response rating, Waterhemp_RES1 [2, 14]	Plant response rating, Waterhemp_RES1 [2, 15]	Plant response rating, Waterhemp_RES1 [2, 16]	Plant response rating, Waterhemp_RES1 [2, 17]	Chickweed plant response rating [8, 18]	Plant response rating, Chickweed [8, 19]	Plant response rating, Chickweed [8, 20]	Chickweed plant response rating [8, 21]	Oat, Wild plant response rating [9, 18]	Plant response rating, Oat, Wild [9, 19]	Plant response rating, Oat, Wild [9, 20]	Oat, Wild plant response rating [9, 21]	Kochia plant response rating (kochia (Kochia scoparia); [18])	Plant response rating, Kochia (kochia (Kochia scoparia); [19])	Plant response rating, Kochia (kochia (Kochia scoparia); [20])	Kochia plant response rating (kochia (Kochia scoparia); [21])	further results
Cc1ccc2sc(Br)c(-c3c(O)c(C)nn(C)c3=O)c2c1 [Compound 79]	50	80	50	70	50	60	70	75	90	90	90	90	50	85	90	60	50	90	90	90	Plant response rating, Barnyardgrass [3]: 0; Plant response rating, Ducksalad [4]: 0; Plant response rating, Rice (rice (Oryza sativa)): 0; Plant response rating, Sedge, Umbrella [5]: 0; Plant response rating, Blackgrass [6]: 70; Blackgrass plant response rating [6]: 80; Plant response rating, Galium [7]: 90; Galium plant response rating [7]: 90
Cc1ccc2sc(C)c(-c3c(OC(=O)OC(C)C)c(C)nn(C)c3=O)c2c1 [Compound 66]	20	90	20	70	80	75	80	–	90	95	95	95	55	90	90	80	90	90	98	90	Plant response rating, Waterhemp_RES1 [2, 22]: 70; Plant response rating, Barnyardgrass [3]: 0; Plant response rating, Ducksalad [4]: 0; Plant response rating, Rice (rice (Oryza sativa)): 0; Plant response rating, Sedge, Umbrella [5]: 0; Plant response rating, Blackgrass [6]: 60; Blackgrass plant response rating [6]: 80; Plant response rating, Galium [7]: 90; Galium plant response rating [7]: 90
Cc1nn(C)c(=O)c(-c2ccc(Br)c3ccccc23)c1O [Compound 75]	0	60	40	80	90	90	95	90	95	95	95	90	40	40	35	35	90	95	95	85	Plant response rating, Barnyardgrass [3]: 0; Plant response rating, Ducksalad [4]: 0; Plant response rating, Rice (rice (Oryza sativa)): 15; Plant response rating, Sedge, Umbrella [5]: 0; Plant response rating, Blackgrass [6]: 50; Blackgrass plant response rating [6]: 70; Plant response rating, Galium [7]: 90; Galium plant response rating [7]: 100
Cc1nn(C)c(=O)c(-c2ccc(F)c3ccccc23)c1O [Compound 41]	30	90	20	90	75	75	90	95	95	90	100	95	55	90	95	90	100	100	100	100	Plant response rating, Barnyardgrass [3]: 30; Plant response rating, Ducksalad [4]: 40; Plant response rating, Rice (rice (Oryza sativa)): 0; Plant response rating, Sedge, Umbrella [5]: 40; Plant response rating, Blackgrass [6]: 70; Blackgrass plant response rating [6]: 90; Plant response rating, Galium [7]: 80; Galium plant response rating [7]: 100
Cc1cc(C)c2sc(C)c(-c3c(O)c(C)nn(C)c3=O)c2c1 [Compound 2, 5-hydroxy-2,6-dimethyl-4-(2,5,7-trimethylbenzo[b]thien-3-yl)-3(2H)-pyridazinone]	–	–	–	–	70	70	70	100	95	95	98	95	75	90	85	80	50	65	75	55	pest or weed control at 125 g/ha ([1]; post-emergence, Postemergence, 125 g ai/ha, visual rating after approx. 10 d, 0 to 100 scale (0 no effect, 100 complete control), read-out: Plant response rating, Barnyardgrass): 30%; pest or weed control at 500 g/ha ([1]; post-emergence, Postemergence, 500 g ai/ha, 0 to 100 scale, 0 is no effect, 100 is complete control, read-out: Barnyardgrass plant response rating): 80%; pest or weed control at 125 g/ha ([1]; pre-emergence, Preemergence, 125 g ai/ha, 0 to 100 scale where 0 is no effect and 100 is complete control, read-out: Barnyardgrass plant response rating): 50%; pest or weed control at 500 g/ha ([1]; pre-emergence, Preemergence, 500 g ai/ha, 0 to 100 scale, 0 no effect, 100 complete control, read-out: Plant response rating, Barnyardgrass): 80%; Plant response rating, Waterhemp_RES1 [2, 22]: 65; pest or weed control at 250 g/ha ([3]; Echinochloa crus-galli, 360 h, read-out: Plant response rating, Barnyardgrass): 30%; pest or weed control at 250 g/ha ([4]; Heteranthera limosa, 360 h, read-out: Plant response rating, Ducksalad): 80%; plant injury at 250 g/ha (rice (Oryza sativa); Oryza sativa, 360 h, read-out: Plant response rating, Rice): 35%; pest or weed control at 250 g/ha ([5]; Cyperus difformis, 360 h, read-out: Plant response rating, Sedge, Umbrella): 85%
